Where two headings read alike, the source gives them in different places.
What was measured:
Recombinant human LDH-B [1] = molecular target: T1, Recombinant human LDH-B (Homo sapiens, UniProt P07195); test: NBT/PMS end-point colorimetric assay, 96-well, lactate to pyruvate; format: biochemical
T1 construct: gene LDHB; commercial recombinant protein (R&D Systems); homotetramer (LDH-1)

Recombinant human LDH-B [2] = molecular target: T1, Recombinant human LDH-B; test: NBT/PMS colorimetric kinetics, mixed-model inhibition fit; format: biochemical
From the text: NBT/PMS colorimetric kinetics, mixed-model inhibition fit on Recombinant human LDH-B

C[C@H](O)C(=O)O = tested on: T2, C[C@H](O)C(=O)O; test: NBT/PMS colorimetric kinetics, Michaelis-Menten fit; format: biochemical, Homo sapiens; settings: 1 mM NAD+, no inhibitor (control), pH 9.6, room temperature
T2 construct: commercial recombinant protein (R&D Systems); homotetramer (LDH-1)
From the text: (§1) NBT/PMS colorimetric kinetics, Michaelis-Menten fit on Recombinant human LDH-B

[3] = tested on: T3, NC(=O)c1ccc[n+]([C@@H]2O[C@H](COP(=O)(O)OP(=O)(O)OC[C@H]3O[C@@H](n4cnc5c(N)ncnc54)[C@H](O)[C@@H]3O)[C@@H](O)[C@H]2O)c1; test: as above; format: biochemical, Homo sapiens; settings: 25 mM sodium lactate, no inhibitor (control), pH 9.6, room temperature, varied: cofactor
T3 construct: commercial recombinant protein (R&D Systems); homotetramer (LDH-1)
From the text: as §1

T1 sequence (P07195 2-334): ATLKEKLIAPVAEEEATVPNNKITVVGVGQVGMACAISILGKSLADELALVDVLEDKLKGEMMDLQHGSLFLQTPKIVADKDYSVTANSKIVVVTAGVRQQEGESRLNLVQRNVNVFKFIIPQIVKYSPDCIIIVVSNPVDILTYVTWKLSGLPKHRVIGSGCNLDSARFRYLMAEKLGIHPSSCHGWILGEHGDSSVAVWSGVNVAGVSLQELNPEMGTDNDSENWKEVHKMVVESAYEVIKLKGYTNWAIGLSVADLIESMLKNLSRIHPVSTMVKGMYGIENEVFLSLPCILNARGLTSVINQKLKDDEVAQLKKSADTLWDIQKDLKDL

IC50 (Recombinant human LDH-B [1]) [µM]	Ki (Recombinant human LDH-B [2]; read-out: Tucatinib / Lactate) [mM]	Ki (Recombinant human LDH-B [2]; read-out: Capmatinib / Lactate) [mM]	Compound	Km (C[C@H](O)C(=O)O) [mM]	Vmax (C[C@H](O)C(=O)O) [µM/min]	Km [3] [µM]	Vmax [3] [µM/min]
502	2.96	–	Cc1cc(Nc2ncnc3ccc(NC4=NC(C)(C)CO4)cc23)ccc1Oc1ccn2ncnc2c1 [compound 1, Tucatinib]	–	–	–	–
512	–	2.69	CNC(=O)c1ccc(-c2cnc3ncc(Cc4ccc5ncccc5c4)n3n2)cc1F [compound 2, Capmatinib]	–	–	–	–
–	–	–	Recombinant human LDH-B (Homo sapiens)	18.5	1050	311	1040

— PMC10609963, “Targeting Lactate Dehydrogenase-B as a Strategy to Fight Cancer: Identification of Potential Inhibitors by In Silico Analysis and In Vitro Screening” (Pharmaceutics, 2023)
